Assay results as given in ChEMBL document CHEMBL1153464.

Legend:
[1] = biological target: DNA-dependent protein kinase catalytic subunit (Homo sapiens) (UniProt P78527); assay: Inhibition of DNA-PK at 10 uM by HotSpot assay relative to control
[2] = biological target: Proto-oncogene tyrosine-protein kinase receptor Ret (Homo sapiens) (UniProt P07949); assay: Inhibition of RET at 10 uM by HotSpot assay relative to control
[3] = biological target: Tyrosine-protein kinase ABL1 (Homo sapiens) (UniProt P00519); assay: Inhibition of Abl at 10 uM by HotSpot assay relative to control
[4] = biological target: Tyrosine-protein kinase SYK (Homo sapiens) (UniProt P43405); assay: Inhibition of SYK at 10 uM by HotSpot assay relative to control
[5] = biological target: Tyrosine-protein kinase Lck (Homo sapiens) (UniProt P06239); assay: Inhibition of LCK at 10 uM by HotSpot assay relative to control
[6] = biological target: Fibroblast growth factor receptor 1 (Homo sapiens) (UniProt P11362); assay: Inhibition of FGFR1 at 10 uM by HotSpot assay relative to control
[7] = biological target: Serine/threonine-protein kinase PAK 4 (Homo sapiens) (UniProt O96013); assay: Inhibition of PAK4 at 10 uM by HotSpot assay relative to control
[8] = biological target: Death-associated protein kinase 1 (Homo sapiens) (UniProt P53355); assay: Inhibition of DAPK1 at 10 uM by HotSpot assay relative to control
[9] = biological target: Ribosomal protein S6 kinase beta-1 (Homo sapiens) (UniProt P23443); assay: Inhibition of p70S6K at 10 uM by HotSpot assay relative to control
[10] = biological target: Tyrosine-protein kinase JAK1 (Homo sapiens) (UniProt P23458); assay: Inhibition of JAK1 at 10 uM by HotSpot assay relative to control
[11] = biological target: Insulin receptor (Homo sapiens) (UniProt P06213); assay: Inhibition of IR at 10 uM by HotSpot assay relative to control
[12] = biological target: Proto-oncogene tyrosine-protein kinase Src (Homo sapiens) (UniProt P12931); assay: Inhibition of c-Src at 10 uM by HotSpot assay relative to control
[13] = biological target: Mitogen-activated protein kinase 8 (Homo sapiens) (UniProt P45983); assay: Inhibition of JNK1-alpha-1 at 10 uM by HotSpot assay relative to control
[14] = biological target: Macrophage-stimulating protein receptor (Homo sapiens) (UniProt Q04912); assay: Inhibition of MST1R at 10 uM by HotSpot assay relative to control
[15] = biological target: Muscle, skeletal receptor tyrosine-protein kinase (Homo sapiens) (UniProt O15146); assay: Inhibition of MUSK at 10 uM by HotSpot assay relative to control
[16] = biological target: Serine/threonine-protein kinase pim-1 (Homo sapiens) (UniProt P11309); assay: Inhibition of PIM1 at 10 uM by HotSpot assay relative to control
[17] = biological target: Vascular endothelial growth factor receptor 2 (Homo sapiens) (UniProt P35968); assay: Inhibition of VEGFR2 at 10 uM by HotSpot assay relative to control
[18] = biological target: Ephrin type-A receptor 1 (Homo sapiens) (UniProt P21709); assay: Inhibition of EPHA1 at 10 uM by HotSpot assay relative to control
[19] = biological target: Cyclin-dependent kinase 1/cyclin B1 (Homo sapiens) (UniProt P06493+P14635); assay: Inhibition of CDK1/Cyclin B at 10 uM by HotSpot assay relative to control; assay type: protein-complex assay
[20] = biological target: Proto-oncogene tyrosine-protein kinase ROS (Homo sapiens) (UniProt P08922); assay: Inhibition of ROS1 at 10 uM by HotSpot assay relative to control
[21] = biological target: Dual specificity mitogen-activated protein kinase kinase 1 (Homo sapiens) (UniProt Q02750); assay: Inhibition of MEK1 at 10 uM by HotSpot assay relative to control
[22] = biological target: Tyrosine-protein kinase Yes (Homo sapiens) (UniProt P07947); assay: Inhibition of YES at 10 uM by HotSpot assay relative to control
[23] = biological target: Hepatocyte growth factor receptor (Homo sapiens) (UniProt P08581); assay: Inhibition of c-MET at 10 uM by HotSpot assay relative to control
[24] = biological target: Focal adhesion kinase 1 (PTK2/FAK) (Homo sapiens) (UniProt Q05397); assay: Inhibition of PTK2 at 10 uM by HotSpot assay relative to control
[25] = tested on: RAC-alpha serine/threonine-protein kinase (Homo sapiens), P31749 [S473D]; assay: Inhibition of AKT1 dPH, S473D mutant at 10 uM by HotSpot assay relative to control
[26] = biological target: Homeodomain-interacting protein kinase 1 (Homo sapiens) (UniProt Q86Z02); assay: Inhibition of HIPK1 at 10 uM by HotSpot assay relative to control
[27] = biological target: Vascular endothelial growth factor receptor 1 (Homo sapiens) (UniProt P17948); assay: Inhibition of FLT1 at 10 uM by HotSpot assay relative to control
[28] = biological target: Serine/threonine-protein kinase 26 (Homo sapiens) (UniProt Q9P289); assay: Inhibition of MST4 at 10 uM by HotSpot assay relative to control
[29] = biological target: Angiopoietin-1 receptor (Homo sapiens) (UniProt Q02763); assay: Inhibition of TIE2 at 10 uM by HotSpot assay relative to control
[30] = biological target: Serine/threonine-protein kinase Chk1 (Homo sapiens) (UniProt O14757); assay: Inhibition of CHEK1 at 10 uM by HotSpot assay relative to control
[31] = biological target: Tyrosine-protein kinase Fgr (Homo sapiens) (UniProt P09769); assay: Inhibition of FGR at 10 uM by HotSpot assay relative to control
[32] = biological target: Protein kinase C alpha type (Homo sapiens) (UniProt P17252); assay: Inhibition of PKCalpha at 10 uM by HotSpot assay relative to control
[33] = biological target: Tyrosine-protein kinase Lyn (Homo sapiens) (UniProt P07948); assay: Inhibition of LYN at 10 uM by HotSpot assay relative to control
[34] = biological target: High affinity nerve growth factor receptor (Homo sapiens) (UniProt P04629); assay: Inhibition of TRKA at 10 uM by HotSpot assay relative to control
[35] = biological target: Mitogen-activated protein kinase 14 (Homo sapiens) (UniProt Q16539); assay: Inhibition of p38-alpha at 10 uM by HotSpot assay relative to control
[36] = biological target: Inhibitor of nuclear factor kappa-B kinase subunit alpha (Homo sapiens) (UniProt O15111); assay: Inhibition of IKK-alpha at 10 uM by HotSpot assay relative to control
[37] = biological target: Serine/threonine-protein kinase PLK1 (Homo sapiens) (UniProt P53350); assay: Inhibition of PLK1 at 10 uM by HotSpot assay relative to control
[38] = biological target: Epidermal growth factor receptor (Homo sapiens) (UniProt P00533); assay: Inhibition of EGFR at 10 uM by HotSpot assay relative to control
[39] = biological target: Rho-associated protein kinase 1 (Homo sapiens) (UniProt Q13464); assay: Inhibition of ROCK-I at 10 uM by HotSpot assay relative to control
[40] = biological target: Casein kinase I isoform epsilon (Homo sapiens) (UniProt P49674); assay: Inhibition of CK1epsilon at 10 uM by HotSpot assay relative to control
[41] = biological target: Serine/threonine-protein kinase B-raf (Homo sapiens) (UniProt P15056); assay: Inhibition of BRAF at 10 uM by HotSpot assay relative to control
[42] = biological target: RAF proto-oncogene serine/threonine-protein kinase (Homo sapiens) (UniProt P04049); assay: Inhibition of RAF1 at 10 uM by HotSpot assay relative to control
[43] = biological target: Mast/stem cell growth factor receptor Kit (Homo sapiens) (UniProt P10721); assay: Inhibition of c-kit at 10 uM by HotSpot assay relative to control
[44] = biological target: Tyrosine-protein kinase Fyn (Homo sapiens) (UniProt P06241); assay: Inhibition of FYN at 10 uM by HotSpot assay relative to control
[45] = biological target: Aurora kinase A (Homo sapiens) (UniProt O14965); assay: Inhibition of Aurora-A at 10 uM by HotSpot assay relative to control

Sequence of Serine/threonine-protein kinase PAK 4 (Homo sapiens) (O96013 whole entry, looked up): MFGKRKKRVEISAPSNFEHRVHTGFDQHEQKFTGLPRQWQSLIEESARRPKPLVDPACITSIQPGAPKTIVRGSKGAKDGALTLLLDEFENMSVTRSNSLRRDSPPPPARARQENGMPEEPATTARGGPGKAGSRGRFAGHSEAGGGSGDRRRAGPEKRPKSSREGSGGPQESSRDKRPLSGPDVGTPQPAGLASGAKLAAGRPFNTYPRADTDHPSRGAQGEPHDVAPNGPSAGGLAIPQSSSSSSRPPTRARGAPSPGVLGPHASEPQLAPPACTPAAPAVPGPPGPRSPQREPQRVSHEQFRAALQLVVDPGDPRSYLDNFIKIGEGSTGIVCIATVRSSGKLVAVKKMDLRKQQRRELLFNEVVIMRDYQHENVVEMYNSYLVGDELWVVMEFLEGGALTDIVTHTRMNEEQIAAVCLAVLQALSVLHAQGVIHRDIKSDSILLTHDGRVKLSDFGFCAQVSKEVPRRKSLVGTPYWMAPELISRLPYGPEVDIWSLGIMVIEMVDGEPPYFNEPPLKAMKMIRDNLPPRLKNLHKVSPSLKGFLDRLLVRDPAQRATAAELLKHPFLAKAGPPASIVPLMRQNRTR
Sequence of DNA-dependent protein kinase catalytic subunit (Homo sapiens) (P78527 whole entry): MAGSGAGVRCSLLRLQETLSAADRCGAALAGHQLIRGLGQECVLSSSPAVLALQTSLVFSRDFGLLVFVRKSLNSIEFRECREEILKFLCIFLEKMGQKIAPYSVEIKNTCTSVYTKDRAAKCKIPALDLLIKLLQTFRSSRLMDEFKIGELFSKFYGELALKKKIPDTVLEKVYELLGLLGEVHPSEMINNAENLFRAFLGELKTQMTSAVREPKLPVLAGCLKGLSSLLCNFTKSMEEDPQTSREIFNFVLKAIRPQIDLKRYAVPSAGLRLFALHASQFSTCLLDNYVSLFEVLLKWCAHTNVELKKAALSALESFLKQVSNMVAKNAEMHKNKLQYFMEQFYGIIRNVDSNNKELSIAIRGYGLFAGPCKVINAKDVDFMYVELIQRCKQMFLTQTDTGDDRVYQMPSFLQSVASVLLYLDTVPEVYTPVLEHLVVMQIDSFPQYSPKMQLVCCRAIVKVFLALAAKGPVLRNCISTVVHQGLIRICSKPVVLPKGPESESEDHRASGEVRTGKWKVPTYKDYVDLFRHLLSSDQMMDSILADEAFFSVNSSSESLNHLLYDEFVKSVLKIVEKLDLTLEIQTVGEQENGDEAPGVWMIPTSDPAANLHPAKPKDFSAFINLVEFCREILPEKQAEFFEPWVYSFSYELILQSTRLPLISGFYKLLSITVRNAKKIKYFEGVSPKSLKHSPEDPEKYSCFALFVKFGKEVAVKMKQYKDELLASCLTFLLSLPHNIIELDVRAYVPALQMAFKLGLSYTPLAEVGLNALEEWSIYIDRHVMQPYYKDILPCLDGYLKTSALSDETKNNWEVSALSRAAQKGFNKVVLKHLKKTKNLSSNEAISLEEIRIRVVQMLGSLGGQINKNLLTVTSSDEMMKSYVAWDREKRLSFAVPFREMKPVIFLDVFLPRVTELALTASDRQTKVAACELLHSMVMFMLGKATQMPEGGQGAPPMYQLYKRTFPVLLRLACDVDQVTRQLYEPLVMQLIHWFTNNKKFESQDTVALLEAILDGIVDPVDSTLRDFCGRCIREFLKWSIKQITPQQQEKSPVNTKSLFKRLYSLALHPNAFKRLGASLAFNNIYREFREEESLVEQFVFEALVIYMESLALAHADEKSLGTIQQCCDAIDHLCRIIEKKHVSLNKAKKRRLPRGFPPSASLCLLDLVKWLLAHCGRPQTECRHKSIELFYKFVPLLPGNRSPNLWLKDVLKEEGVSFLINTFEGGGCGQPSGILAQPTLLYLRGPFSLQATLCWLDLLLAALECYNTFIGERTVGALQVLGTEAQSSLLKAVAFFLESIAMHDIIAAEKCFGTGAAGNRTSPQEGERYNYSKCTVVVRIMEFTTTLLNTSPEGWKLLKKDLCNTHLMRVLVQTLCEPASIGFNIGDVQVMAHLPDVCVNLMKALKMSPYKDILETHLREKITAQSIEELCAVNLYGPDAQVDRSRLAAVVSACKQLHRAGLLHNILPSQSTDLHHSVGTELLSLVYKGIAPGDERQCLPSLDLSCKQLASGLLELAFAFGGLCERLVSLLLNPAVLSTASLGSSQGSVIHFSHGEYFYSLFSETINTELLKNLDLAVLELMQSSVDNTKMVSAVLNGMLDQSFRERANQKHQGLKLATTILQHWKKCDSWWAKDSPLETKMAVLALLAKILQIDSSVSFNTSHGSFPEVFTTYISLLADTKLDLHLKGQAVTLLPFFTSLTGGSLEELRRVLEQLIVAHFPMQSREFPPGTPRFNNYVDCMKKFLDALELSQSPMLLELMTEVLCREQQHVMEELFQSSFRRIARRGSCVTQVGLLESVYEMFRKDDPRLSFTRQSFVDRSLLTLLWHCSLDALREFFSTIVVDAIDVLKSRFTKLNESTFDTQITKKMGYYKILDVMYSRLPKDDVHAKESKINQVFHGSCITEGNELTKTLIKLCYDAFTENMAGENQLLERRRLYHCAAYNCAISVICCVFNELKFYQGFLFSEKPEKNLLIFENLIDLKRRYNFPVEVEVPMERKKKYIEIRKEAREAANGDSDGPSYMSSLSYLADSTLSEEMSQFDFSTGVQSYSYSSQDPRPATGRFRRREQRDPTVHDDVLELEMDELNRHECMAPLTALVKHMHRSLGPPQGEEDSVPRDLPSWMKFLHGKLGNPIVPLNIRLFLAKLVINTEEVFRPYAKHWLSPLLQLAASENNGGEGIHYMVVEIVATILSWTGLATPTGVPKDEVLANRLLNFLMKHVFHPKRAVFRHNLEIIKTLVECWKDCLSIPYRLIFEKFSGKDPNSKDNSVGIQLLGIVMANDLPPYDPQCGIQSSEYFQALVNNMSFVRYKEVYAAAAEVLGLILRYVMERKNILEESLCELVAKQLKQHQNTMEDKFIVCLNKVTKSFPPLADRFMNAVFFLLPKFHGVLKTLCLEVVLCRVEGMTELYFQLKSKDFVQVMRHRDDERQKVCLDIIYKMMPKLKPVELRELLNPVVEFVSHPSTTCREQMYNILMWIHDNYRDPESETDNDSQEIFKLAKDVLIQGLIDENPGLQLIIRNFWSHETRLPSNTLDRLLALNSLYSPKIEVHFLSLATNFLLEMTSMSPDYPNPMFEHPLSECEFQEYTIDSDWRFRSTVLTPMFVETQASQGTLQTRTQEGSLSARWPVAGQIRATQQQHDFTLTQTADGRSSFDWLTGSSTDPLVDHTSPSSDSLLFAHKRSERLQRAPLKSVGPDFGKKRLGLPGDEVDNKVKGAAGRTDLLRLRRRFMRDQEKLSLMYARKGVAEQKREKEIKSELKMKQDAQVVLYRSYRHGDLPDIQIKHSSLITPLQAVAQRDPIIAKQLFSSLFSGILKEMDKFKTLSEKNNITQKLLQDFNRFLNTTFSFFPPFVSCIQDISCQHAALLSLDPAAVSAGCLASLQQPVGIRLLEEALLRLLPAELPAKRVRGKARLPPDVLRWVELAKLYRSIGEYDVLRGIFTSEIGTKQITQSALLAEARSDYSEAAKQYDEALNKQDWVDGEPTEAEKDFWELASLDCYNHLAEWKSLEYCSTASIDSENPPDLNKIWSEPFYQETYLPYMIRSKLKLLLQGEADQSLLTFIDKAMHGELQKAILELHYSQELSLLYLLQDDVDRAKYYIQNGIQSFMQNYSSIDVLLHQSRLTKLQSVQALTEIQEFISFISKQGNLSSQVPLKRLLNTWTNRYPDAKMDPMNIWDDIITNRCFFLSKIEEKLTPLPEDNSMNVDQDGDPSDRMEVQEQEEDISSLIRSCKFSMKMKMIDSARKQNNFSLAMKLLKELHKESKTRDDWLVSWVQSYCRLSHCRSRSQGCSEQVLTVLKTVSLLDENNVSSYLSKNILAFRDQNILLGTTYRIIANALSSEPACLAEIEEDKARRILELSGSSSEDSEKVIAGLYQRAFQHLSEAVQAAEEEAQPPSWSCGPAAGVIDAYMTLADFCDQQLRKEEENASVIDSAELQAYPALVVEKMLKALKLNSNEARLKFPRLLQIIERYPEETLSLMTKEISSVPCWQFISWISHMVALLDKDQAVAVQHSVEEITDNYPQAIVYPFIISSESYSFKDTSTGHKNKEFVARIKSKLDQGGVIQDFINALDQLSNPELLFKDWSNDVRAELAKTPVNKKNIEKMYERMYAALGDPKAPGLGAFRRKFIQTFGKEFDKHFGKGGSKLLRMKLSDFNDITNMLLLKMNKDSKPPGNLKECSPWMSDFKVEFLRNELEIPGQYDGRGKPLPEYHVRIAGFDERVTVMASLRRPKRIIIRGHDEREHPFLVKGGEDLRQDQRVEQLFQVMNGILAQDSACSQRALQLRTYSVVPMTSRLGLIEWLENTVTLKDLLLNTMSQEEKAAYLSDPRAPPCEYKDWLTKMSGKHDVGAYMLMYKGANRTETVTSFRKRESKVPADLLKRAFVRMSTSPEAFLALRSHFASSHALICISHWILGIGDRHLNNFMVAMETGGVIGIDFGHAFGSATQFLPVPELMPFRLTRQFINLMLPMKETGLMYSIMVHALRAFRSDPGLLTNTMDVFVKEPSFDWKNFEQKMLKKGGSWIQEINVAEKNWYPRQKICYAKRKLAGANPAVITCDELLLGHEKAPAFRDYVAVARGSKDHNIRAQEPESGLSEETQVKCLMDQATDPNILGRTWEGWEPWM
Sequence of Casein kinase I isoform epsilon (Homo sapiens) (P49674 whole entry, looked up, canonical isoform): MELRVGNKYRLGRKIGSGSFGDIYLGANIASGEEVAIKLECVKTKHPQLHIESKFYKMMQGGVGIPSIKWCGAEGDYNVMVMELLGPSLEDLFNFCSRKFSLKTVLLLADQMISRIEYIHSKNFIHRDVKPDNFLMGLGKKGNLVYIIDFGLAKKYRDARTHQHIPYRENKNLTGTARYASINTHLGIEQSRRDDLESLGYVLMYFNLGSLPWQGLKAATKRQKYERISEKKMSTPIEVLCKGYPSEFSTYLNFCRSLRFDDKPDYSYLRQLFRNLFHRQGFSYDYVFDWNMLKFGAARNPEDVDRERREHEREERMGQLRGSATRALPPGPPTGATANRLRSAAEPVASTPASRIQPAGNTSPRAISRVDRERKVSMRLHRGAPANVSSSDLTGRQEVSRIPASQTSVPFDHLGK

inhibition [1]: 6.56%
inhibition [2]: 6.65%
inhibition [3]: 20.4%
inhibition [4]: 8.23%
inhibition [5]: 10.3%
inhibition [6]: -8.05%
inhibition [7]: 1.37%
inhibition [9]: 5.79%
inhibition [10]: 9.15%
inhibition [11]: 7.01%
inhibition [12]: 16.2%
inhibition [13]: 3.83%
inhibition [14]: 28.8%
inhibition [15]: -0.42%
inhibition [16]: 5.91%
inhibition [17]: -5.84%
inhibition [18]: 23.3%
inhibition [19]: 3.64%
inhibition [20]: 93.9%
inhibition [21]: -6.97%
inhibition [22]: -2.59%
inhibition [23]: 5.82%
inhibition [24]: 3.43%
inhibition [25]: -2.97%
inhibition [26]: -3.43%
inhibition [27]: -1.67%
inhibition [28]: -1.54%
inhibition [29]: 8.17%
inhibition [30]: 2.36%
inhibition [31]: 3.34%
inhibition [32]: 9.23%
inhibition [33]: -1.45%
inhibition [34]: -0.14%
inhibition [35]: 5.27%
inhibition [36]: 1.37%
inhibition [37]: 5.85%
inhibition [38]: -2.23%
inhibition [39]: 11.7%
inhibition [40]: 9.32%
inhibition [41]: 8.97%
inhibition [42]: 20.4%
inhibition [43]: 2.85%
inhibition [44]: -7.86%
inhibition [45]: 21.8%
SMILES: Cc1cc(O)cc(-c2nn(CC#N)cc2-c2cc(NC[C@H](C)O)nc(-c3cccnc3)n2)c1
inhibition [8]: -1.17%
